Publication PMC9964938, “Synthesis and Properties of Sucrose- and Lactose-Based Aromatic Ester Surfactants as Potential Drugs Permeability Enhancers” (Pharmaceuticals, 2023)

Experiments:
Calu-3 monolayers [1] = system: Calu-3 monolayers; parameters: method as in PMID 29970849; details: Calu-3 cells, non-cytotoxic concentration, reversible; cited from earlier work
Calu-3 monolayers [2] = assay: TEER measurement; format: cell-based, human; details: Calu-3 cells; for effect on TEER: surfactant 4 mM in HBSS, 3 h; for decrease in TEER with respect to basal value: surfactant 4 mM, reversible
Description: TEER studies were performed in Calu-3 cells (Figure 4) to preliminarily evaluate the potential use of the synthesized sugar esters as absorption enhancers. […] .
Calu-3 cells were seeded on filter inserts Transwell® at ~200,000 cells per insert. The cells were cultured in Dulbecco Modified Eagle Medium (DMEM)-F12 to confluence for around three weeks using an air–liquid culture condition. The culture medium was changed every 48 h. […] Baseline TEER was recorded following 30 min of equilibration in HBSS. […] The cells were incubated with the samples or HBSS as a control for 3 h. During this period, TEER was measured every 30 min. The samples were then removed and the cells were washed extensively using HBSS. Culture medium was added to the basolateral chamber and a further measurement of TEER was taken at 24 h following sample application to establish TEER reversibility. The change in TEER was reported as a percentage relative to the baseline value.

[3] = CMC by pyrene fluorescence spectroscopy; format: physicochemical; details: pyrene I/III peak ratio, aqueous solution, 25 °C
Excerpt: Pyrene is a common fluorescence probe, widely employed to investigate the aggregation state of surfactant in aqueous solution, as its emission properties are strongly influenced by the polarity of the microenvironment. Specifically, a decrease in the ratio between I and III peaks is observed when the hydrophobicity increases in the surroundings of pyrene as a result of the aggregation of surfactants into micelles or supramolecular aggregates. […] As is common for surfactants, the concentration at which aggregation in aqueous solution occurs is strongly dependent on the hydrophilicity/hydrophobicity balance between the surfactant head and tail. Specifically, changes in the hydrophobicity of the surfactant tail exert a marked effect on the self-assembling properties for a surfactant bearing the same polar head. On the contrary, the variation in the sugar head has a minor effect.
The pyrene emissions in the surfactant solutions at different concentrations (0.03–4 mM) were measured using a LS 55 fluorescence spectrometer (PerkinElmer, Waltar, MA, USA) equipped with a thermostatic bath HAAKE C25P (Artisan Scientific Corporation, Champaign, IL, USA). For the analyses, three microliters of the pyrene solution in CH3OH (2 μM) were added to each of the aqueous surfactant solutions. The excitation wavelength was 334 nm. Ten acquisitions were recorded for each solution in the range of 200–700 nm at a temperature of 25 °C. The peak intensity I (λ = 372 nm) to III (λ = 384 nm) ratio was plotted against the surfactant concentrations. CMC values were calculated from the center of the sigmoid by fitting the experimental data through the Boltzmann nonlinear regression (GraphPad Prism 6 software) according to the following equation: bottom+(top−bottom)/1+10^[(logCMC−x)hill slope] where the top and bottom are the plateau of the curve and the hill slope is the steepness.

[4] = CMC by dynamic light scattering (counts); format: physicochemical; details: counts vs concentration, 25 °C
Excerpt: The DLS from the counts analysis confirmed the self-assembling properties of the amphiphiles analyzed as evidenced by the fluorescence measurements. Figure 2b reports the variation in the scattering intensities to the detector (kCps) as a function of the surfactant concentration.
As unimers, instead, the hydrodynamic sizes of the surfactant molecules were too small and the scattering properties of the solutions were not markedly different from those of the medium.
The scattering intensity to the detector (counts, kCps) was measured for different concentrations (0.03–4 mM) of surfactant solution using a Malvern Zetasizer Nano S (Malvern, Worcestershire, UK). Measurements were performed at 25 °C at a fixed laser position (4.65) and attenuation (11). CMC values were calculated from counts versus concentration plots by fitting the experimental data using the segmental linear regression model (GraphPad Prism 6 software).

Calu-3 monolayers [5] = assay: FITC-dextran in vitro cell permeability study; details: surfactant 4 mM
Description: Cell monolayers with TEER over 800 Ω were used in these studies to ensure the integrity of the monolayers. FITC-dextran MW 4000 was used as a model macromolecular drug. Prior to sample application, the culture medium was removed, and the cell layers were washed with HBSS. The cells were equilibrated in HBSS for 30 min. Sucrose ester solutions at 4 mM and dextran at a final concentration of 0.5 mg/mL in HBSS were applied to the apical side of the cells. HBSS was added to the basolateral side. A basolateral solution of 100 µL was collected at 30, 60, 90, 120, 150, and 180 min after sample application and replaced with an equivalent volume of fresh HBSS. The amount of dextran permeating the cell monolayers in 3 h was quantified by spectrofluorometric analysis.

Calu-3 cells = assay: MTT cell viability assay; format: cell-based, human; details: 3 h incubation
Description: All the compounds were tested to evaluate their cytotoxicity profile on Calu-3 cells. The MTT colorimetric assay, based on the reduction of a yellow tetrazolium salt MTT to purple formazan crystals by metabolically active cells, was used to measure the cellular metabolic activity as an indicator of cell viability, proliferation, and cytotoxicity. Indeed, the viable cells contain NAD(P)H-dependent oxidoreductase enzymes, which reduce MTT to formazan. […] Moreover, the LDH release assay, used to assess the level of plasma membrane damage in a cell population, was performed to evaluate the cytotoxicity of the sugar esters. LDH is in fact a stable enzyme found in all cell types and is rapidly released into the cell culture medium following damage to the plasma membrane that occurs after cell damage or death. […]
Calu-3 cells were seeded on 96-well plates at ~50,000 cells per well and were incubated to attain at least 80% confluence before the experiment. Prior to the assay, the culture medium was removed and replaced with different concentrations of surfactants (0.03 to 4.5 mM for the fluorescence spectroscopy and DLS analysis) in Hank’s balanced salt solution (HBSS). […] The supernatant was collected for the LDH assay and the cell viability was measured with the MTT assay according to the manufacturers’ instructions, with at least three repeats for each sample.

Compound	TEER, % of the baseline value after decrease (Calu-3 monolayers [1])	effect on TEER (Calu-3 monolayers [2])	Fluorescence Spectroscopy CMC [3] [mM]	Dynamic Light Scattering CMC [4] [mM]	decrease in TEER with respect to basal value (Calu-3 monolayers [2])	permeation enhancing effect on FITC-dextran Papp (Calu-3 monolayers [5]; Calu-3 cell layers, FITC-dextran MW 4000 0.5 mg/mL)	increase in FITC-dextran permeability vs control (Calu-3 monolayers [5]; Calu-3 cells, non-statistically significant vs control)	cell viability (MTT) (Calu-3 cells; highest tested concentration of 4.5 mM)	cell viability (MTT), lowest level reached (Calu-3 cells; 0.03 to 4.5 mM) [%]
CCCCCCCCCCCC(=O)OCC1OC(OC2C(CO)OC(O)C(O)C2O)C(O)C(O)C1O (stereo not shown) [6′-lactose laurate]	~ 25%	–	–	–	–	–	–	–	–
O=C(Cc1ccccc1)OC[C@H]1O[C@H](O[C@]2(CO)O[C@H](CO)[C@@H](O)[C@@H]2O)[C@H](O)[C@@H](O)[C@@H]1O [URB1480, β-D-fructofuranosyl 6-O-(2-Phenylethanoyl)-α-D-glucopyranoside]	–	only poorly affected TEER	0.861 ± 0.076	0.791 ± 0.045	–	–	–	–	–
O=C(OC[C@H]1O[C@H](O[C@]2(CO)O[C@H](CO)[C@@H](O)[C@@H]2O)[C@H](O)[C@@H](O)[C@@H]1O)c1ccc(-c2ccccc2)cc1 [URB1481, β-D-fructofuranosyl 6-O-[2-(4-Phenyl)benzoyl]-α-D-glucopyranoside]	–	most effective surfactants for decreasing TEER	0.305 ± 0.091	0.329 ± 0.023	~ 30%	more prominent permeation enhancing effect	three-fold increase	above 70%	–
O=C(Cc1ccc(-c2ccccc2)cc1)OC[C@H]1O[C@H](O[C@]2(CO)O[C@H](CO)[C@@H](O)[C@@H]2O)[C@H](O)[C@@H](O)[C@@H]1O [URB1482, β-D-fructofuranosyl 6-O-[2-(4-Phenyl)phenylethanoyl]-α-D-glucopyranoside]	–	moderate action	0.095 ± 0.015	0.181 ± 0.026	–	–	–	–	–
Lactose p-biphenyl acetate [URB1421]	–	moderate action	0.110 ± 0.017	0.259 ± 0.063	–	–	–	–	–
Lactose p-phenyl benzoate [URB1420]	–	most effective surfactants for decreasing TEER	0.270 ± 0.015	0.344 ± 0.034	~ 30%	–	–	–	–
Lactose phenyl acetate [URB1419]	–	moderate action	0.753 ± 0.084	0.729 ± 0.075	–	–	–	–	≥ 70
